Data reported in the supplement of paper PMC11208160.

Assay: recombinant UMI read abundance after kanamycin selection (control-corrected) (log10(CPM+1)); higher = more efficient recombination; extreme values may be limits of the assay; sequences stand for … in AGTGCAGAGAAAATCGGCCAGTTTTCTCTGCCTGCAGTCCGCATGCCGTGGGACCCCTTGGGTTCTAACCTGTTGCCTAGATTTATGCAGCGGACTGCCTTTCTCCCAAAGTGATAAACCGG…AGGTTGGTTTCACT; site = the 11-nt donor
Method in brief: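 Under IPTG (0.07 mM) plus kanamycin, or without selection, Escherichia coli carrying a UMI-tagged donor and donor-binding-loop pair library and a target plasmid for the IS621 bridge recombinase were plated in two replicates. Recombinant UMIs were PCR-amplified across the donor–target junction and sequenced. Counts were converted to CPM, averaged over replicates, scaled by control-derived factors and reported as log10(CPM+1).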
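Further: IS621 bridge recombinase in Escherichia coli cells against a fixed T5 target plasmid.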

Sequence | recombinant UMI read abundance (log10)
ATGATCTCATGGACCGGTTTTCCCGGTAATCCGTATTTGCG (site ATGATCTCTCG) | 3.11
ATGCAAACATGGACCGGTTTTCCCGGTAATCCGTATTTGGA (site ATGCAAACTTC) | 1.69
ATGCAGACATGGACCGGTTTTCCCGGTAATCCGTATTTGTT (site ATGCAGACTAA) | 1.92
ATGCCATCATGGACCGGTTTTCCCGGTAATCCGTATTTGCA (site ATGCCATCTTG) | 1.98
ATGCGTTCATGGACCGGTTTTCCCGGTAATCCGTATTTGGG (site ATGCGTTCTCC) | 1.05
ATGGAAACATGGACCGGTTTTCCCGGTAATCCGTATTTGCG (site ATGGAAACTCG) | 2.39
ATGGAGACATGGACCGGTTTTCCCGGTAATCCGTATTTGTA (site ATGGAGACTTA) | 2.41
ATGGAGACATGGACCGGTTTTCCCGGTAATCCGTATTTGTG (site ATGGAGACTCA) | 1.96
ATGGAGGCATGGACCGGTTTTCCCGGTAATCCGTATTTGGC (site ATGAAGGCTGC) | 2.07
ATGGAGGCATGGACCGGTTTTCCCGGTAATCCGTATTTGGC (site ATGCAGGCTGC) | 1.03
ATGGAGGCATGGACCGGTTTTCCCGGTAATCCGTATTTGGC (site ATGGAGGCTGC) | 2.53
ATGGAGGCATGGACCGGTTTTCCCGGTAATCCGTATTTGGC (site ATGTAGGCTGC) | 1.48
ATGGAGGCATGGACCGGTTTTCCCGGTAATCCGTATTTGTG (site ATGGAGGCTCA) | 1.11
ATGGAGGCATGGACCGGTTTTCCCGGTAATCCGTATTTGTG (site CTGGAGGCTCA) | 0.764
ATGGAGGCATGGACCGGTTTTCCCGGTAATCCGTATTTGTG (site GTGGAGGCTCA) | 0.0176
ATGGAGGCATGGACCGGTTTTCCCGGTAATCCGTATTTGTG (site TTGGAGGCTCA) | 0.765
ATGGCTACATGGACCGGTTTTCCCGGTAATCCGTATTTGGG (site ATGGCTACTCC) | 0.356
ATGTAAGCATGGACCGGTTTTCCCGGTAATCCGTATTTGGC (site ATGTAAGCTGC) | 3.24
ATGTAAGCATGGACCGGTTTTCCCGGTAATCCGTATTTGGC (site ATGTACGCTGC) | 0.982
ATGTAAGCATGGACCGGTTTTCCCGGTAATCCGTATTTGGC (site ATGTAGGCTGC) | 2.04
ATGTAAGCATGGACCGGTTTTCCCGGTAATCCGTATTTGGC (site ATGTATGCTGC) | 0
ATGTACGCATGGACCGGTTTTCCCGGTAATCCGTATTTGGT (site ATGTACGCTAC) | 1.42
ATGTAGGCATGGACCGGTTTTCCCGGTAATCCGTATTTGCC (site ATGTAGGCTGA) | 1.76
ATGTAGGCATGGACCGGTTTTCCCGGTAATCCGTATTTGCC (site ATGTAGGCTGC) | 0
ATGTAGGCATGGACCGGTTTTCCCGGTAATCCGTATTTGCC (site ATGTAGGCTGG) | 2.21

Sequence | recombinant UMI read abundance (log10)
ATGTAGGCATGGACCGGTTTTCCCGGTAATCCGTATTTGCC (site ATGTAGGCTGT) | 1.7
ATGTAGTCATGGACCGGTTTTCCCGGTAATCCGTATTTGGT (site ATGTAGTCTAC) | 2.81
ATTAAGTCATGGACCGGTTTTCCCGGTAATCCGTATTTGTA (site ATTAAGTCTTA) | 2.58
ATTAGAACATGGACCGGTTTTCCCGGTAATCCGTATTTGAG (site AATAGAACTCT) | 0.403
ATTAGAACATGGACCGGTTTTCCCGGTAATCCGTATTTGAG (site ACTAGAACTCT) | 0.665
ATTAGAACATGGACCGGTTTTCCCGGTAATCCGTATTTGAG (site AGTAGAACTCT) | 0.286
ATTAGAACATGGACCGGTTTTCCCGGTAATCCGTATTTGAG (site ATTAGAACTCT) | 1.22
ATTAGGCCATGGACCGGTTTTCCCGGTAATCCGTATTTGAC (site ATAAGGCCTGT) | 0
ATTAGGCCATGGACCGGTTTTCCCGGTAATCCGTATTTGAC (site ATCAGGCCTGT) | 0.0148
ATTAGGCCATGGACCGGTTTTCCCGGTAATCCGTATTTGAC (site ATGAGGCCTGT) | 0
ATTAGGCCATGGACCGGTTTTCCCGGTAATCCGTATTTGAC (site ATTAGGCCTGT) | 0
ATTATCCCATGGACCGGTTTTCCCGGTAATCCGTATTTGCC (site ATTATCCCTGG) | 0.749
ATTCACGCATGGACCGGTTTTCCCGGTAATCCGTATTTGCA (site ATTCACGCTTG) | 2.42
ATTCAGCCATGGACCGGTTTTCCCGGTAATCCGTATTTGTT (site ATTCAGCCTAA) | 0.0136
ATTCATACATGGACCGGTTTTCCCGGTAATCCGTATTTGGC (site ATTCATACTGC) | 1.81
ATTCCATCATGGACCGGTTTTCCCGGTAATCCGTATTTGAC (site ATTCCATCTGT) | 0.764
ATTCCGACATGGACCGGTTTTCCCGGTAATCCGTATTTGTG (site ATTCCGACTCA) | 0.00802
ATTCGAGCATGGACCGGTTTTCCCGGTAATCCGTATTTGAA (site ATTCGAGCTTT) | 1.31
ATTGAAACATGGACCGGTTTTCCCGGTAATCCGTATTTGGT (site ATTGAAACTAC) | 1.66
ATTGAAACATGGACCGGTTTTCCCGGTAATCCGTATTTGGT (site ATTGACACTAC) | 0.0867
ATTGAAACATGGACCGGTTTTCCCGGTAATCCGTATTTGGT (site ATTGAGACTAC) | 0.484
ATTGAAACATGGACCGGTTTTCCCGGTAATCCGTATTTGGT (site ATTGATACTAC) | 0.0144
ATTGACCCATGGACCGGTTTTCCCGGTAATCCGTATTTGGA (site ATTGACCCTTC) | 0.0199
ATTGAGACATGGACCGGTTTTCCCGGTAATCCGTATTTGGA (site ATTGAGACTAC) | 0.0442
ATTGAGACATGGACCGGTTTTCCCGGTAATCCGTATTTGGA (site ATTGAGACTCC) | 0.663

Sequence | recombinant UMI read abundance (log10)
ATTGAGACATGGACCGGTTTTCCCGGTAATCCGTATTTGGA (site ATTGAGACTGC) | 0.645
ATTGAGACATGGACCGGTTTTCCCGGTAATCCGTATTTGGA (site ATTGAGACTTC) | 1
ATTGAGACATGGACCGGTTTTCCCGGTAATCCGTATTTGGT (site AATGAGACTAC) | 0.233
ATTGAGACATGGACCGGTTTTCCCGGTAATCCGTATTTGGT (site ACTGAGACTAC) | 0.972
ATTGAGACATGGACCGGTTTTCCCGGTAATCCGTATTTGGT (site AGTGAGACTAC) | 0.609
ATTGAGACATGGACCGGTTTTCCCGGTAATCCGTATTTGGT (site ATAGAGACTAC) | 1.78
ATTGAGACATGGACCGGTTTTCCCGGTAATCCGTATTTGGT (site ATCGAGACTAC) | 0.854
ATTGAGACATGGACCGGTTTTCCCGGTAATCCGTATTTGGT (site ATGGAGACTAC) | 0.639
ATTGAGACATGGACCGGTTTTCCCGGTAATCCGTATTTGGT (site ATTAAGACTAC) | 1.62
ATTGAGACATGGACCGGTTTTCCCGGTAATCCGTATTTGGT (site ATTCAGACTAC) | 0.296
ATTGAGACATGGACCGGTTTTCCCGGTAATCCGTATTTGGT (site ATTGAAACTAC) | 1.88
ATTGAGACATGGACCGGTTTTCCCGGTAATCCGTATTTGGT (site ATTGACACTAC) | 0.0545
ATTGAGACATGGACCGGTTTTCCCGGTAATCCGTATTTGGT (site ATTGAGACTAA) | 0.949
ATTGAGACATGGACCGGTTTTCCCGGTAATCCGTATTTGGT (site ATTGAGACTAC) | 1.39
ATTGAGACATGGACCGGTTTTCCCGGTAATCCGTATTTGGT (site ATTGAGACTAG) | 0.772
ATTGAGACATGGACCGGTTTTCCCGGTAATCCGTATTTGGT (site ATTGAGACTAT) | 1.17
ATTGAGACATGGACCGGTTTTCCCGGTAATCCGTATTTGGT (site ATTGAGACTCC) | 0.379
ATTGAGACATGGACCGGTTTTCCCGGTAATCCGTATTTGGT (site ATTGAGACTGC) | 0.953
ATTGAGACATGGACCGGTTTTCCCGGTAATCCGTATTTGGT (site ATTGAGACTTC) | 0.0155
ATTGAGACATGGACCGGTTTTCCCGGTAATCCGTATTTGGT (site ATTGAGCCTAC) | 0.0258
ATTGAGACATGGACCGGTTTTCCCGGTAATCCGTATTTGGT (site ATTGAGGCTAC) | 0.186
ATTGAGACATGGACCGGTTTTCCCGGTAATCCGTATTTGGT (site ATTGAGTCTAC) | 1.06
ATTGAGACATGGACCGGTTTTCCCGGTAATCCGTATTTGGT (site ATTGATACTAC) | 0.512
ATTGAGACATGGACCGGTTTTCCCGGTAATCCGTATTTGGT (site ATTGCGACTAC) | 0.151
ATTGAGACATGGACCGGTTTTCCCGGTAATCCGTATTTGGT (site ATTGGGACTAC) | 0.407
